Tests used:
[1] = test system: Spinal reflex (flexor reflex); assay: Spinal reflex (flexor reflex) inhibitory action, evoked electromyogram in anesthetized rats; assay type: in vivo, male rats; Wistar strain; details: intravenous (i.v.) administration of 5 mg/kg in physiological saline; average amplitude over 30 minutes after vs 10 minutes before administration; rats anesthetized with urethane and α-chloralose
Procedure: 1. Spinal reflex (flexor reflex) inhibitory action
Animals (male rats; Wistar strain) were anesthetized with urethane and α-chloralose, and their tibial nerve was dissected, and stimulated (0.1 msec, 0.1 Hz, ultra-maximum stimulation) by the stimulator (Model MSE-3; Nippon Koden). […] The amplitude of this evoked electromyogram was recorded on a pen recorder through a peak holder.The activity of the compounds was expressed by flexor reflex inhibition rate. That is, the flexor reflex inhibition rate was calculated from the following equation (A): [formula] wherein A is the average amplitude of the electromyogram in the period of 10 minuts before the administration of the test compound, and B is the average amplitude of the electromyogram in the period of 30 minutes after the intravenous (i.v.) administration of 5 mg/kg of the test compound dissolved in a physiological saline solution.

[2] = test system: ischemic decerebrate rigidity; assay: Action to ischemic decerebrate rigidity of rat (Fukuda et al method); assay type: in vivo, male Wistar rat; details: intravenous administration 3.5 mg/kg; average forepaw tension for 10 minutes at peak period after vs before administration
Description: 2. Action to ischemic decerebrate rigidity of rat
The effects on the ischemic decerebrate rigidity were investigated by using Fukuda et al method (H. Fukuda, T. Ito, S. Hashimoto and Y. Kudo: Japan. J. Pharmacol., 24, 810 (1974)). The rigidity is due to hyperactivity of α-motorneurones. The rigid animals provide a good experimental model for some type of spasticity in man.
A tracheal cannula was inserted in each of male Wistar rat under ether anesthesia. Both of common carotid arteries were ligated and the basilar artery was cauterized with a bipolar coagulator to block the blood circulation and to prepare a rigidity sample. The rigidity was recorded as described below. A rat was fixed on its back on a fixing stand and its forepaws were allowed to grisp an end of a celluloid plate provided with strain gauges on both sides thereof. A change of the resistance observed when the celluloid plate was forced up by the rigidity of the forepaws was recorded as a tension through a bridge circuit on a self-balancing recorder. A rigidity inhibition rate was calculated according to the following equation: [formula] when C represents an average tension (g) for 10 minutes at peak period before the administration of a test compound and D represents an average tension (g) for 10 minutes at peak period recorded after the intravenous administration 3.5 mg/kg of a test compound.

[3] = Acute toxicity, LD50 in mice intravenously; details: mouse, in vivo, iv, read-out: LD₅₀ (Mice; i.v.)
Procedure: LD₅₀ (mg/kg) of the each test compound given to mice intravenously was determined.

COc1ccc(C(=O)C(C)CN2CCCC2)c2c1CCCC2 (stereo not drawn) [2-1, 1-(4-Methoxy-5,6,7,8-tetrahydro-1-naphthyl)-2-methyl-3-pyrrolidino-1-propanone]
Inhibition rate (%) (flexor reflex inhibition rate) [1]: 53.6%
Inhibition rate (%) (rigidity inhibition rate) [2]: 46.1%
LD50 [3]: 38.1 mg/kg

CCC(CN1CCCC1)C(=O)c1ccc(OC)c2c1CCCC2 (stereo not drawn) [2-11, 1-(4-Methoxy-5,6,7,8-tetrahydro-1-naphthyl)-2-ethyl-3-pyrrolidino-1-propanone]
Inhibition rate (%) (flexor reflex inhibition rate) [1]: 50.0%
Inhibition rate (%) (rigidity inhibition rate) [2]: 53.9%
LD50 [3]: 35.4 mg/kg

CC(CN1CCCC1)C(=O)c1ccc(C(F)(F)F)cc1 (stereo not drawn) [4-1, 1-(4-Trifluoromethylphenyl)-2-methyl-3-pyrrolidino-1-propanone]
Inhibition rate (%) (flexor reflex inhibition rate) [1]: 40.3%
Inhibition rate (%) (rigidity inhibition rate) [2]: 23.6%
LD50 [3]: 61.1 mg/kg

Source: patent EP0200942B1, “New derivatives of an aminoketone” (NIPPON KAYAKU KABUSHIKI KAISHA, priority 1985, dated 1986)
